The values below are quoted from earlier work in US20160101176A1, “POLYMERIC HYDROGEL PHARMACEUTICAL COMPOSITIONS WITH ON-DEMAND RELEASE OF A DRUG IN RESPONSE TO A ELECTRICAL STIMULUS” (UNIVERSITY OF THE WITWATERSRAND, JOHANNESBURG, priority 2013, published 2016).

In series [1] the test system is plasma proteins. The settings on record: Raveendran et al., 1992.
For series [2] the following is noted: rat's cardio-vascular system; Elahi et al., 2009.

`COc1ccc2c(c1)c(CC(=O)O)c(C)n2C(=O)c1ccc(Cl)cc1` [indomethacin]: the protein binding result in series [1] was “highly protein bound”. Further, in series [2], the t1/2 is 7 to 10 h.
